# No end group written: not given here.
# How the values were obtained:
# [1] = system: WI38; conditions: MTT, 24 hours with peptide; for WI38 LD50: normal fibroblast line; for LD50 WI38: WI38 normal lung fibroblast line
# [2] = system: BMKC; test: Anti-cancer assay, MTT, LD50; format: cell-based; conditions: BMKC cloned melanoma line, 24 hours with peptide
# Text: (§1) Numbers are LD50 values (μg/mL).
# [3] = system: PC3; test: Anti-cancer assay, MTT, LD50; format: cell-based; conditions: 24 hours with peptide, prostate adenocarcinoma
# Text: as §1
# [4] = system: SW480; test: Anti-cancer assay, MTT, LD50; format: cell-based; conditions: SW480 colon adenocarcinoma line, 24 hours with peptide
# Text: as §1
# [5] = system: MCF7; test: Anti-cancer assay, MTT, LD50; format: cell-based; conditions: MCF7 breast adenocarcinoma line, MTT, 24 hours with peptide
# Text: as §1
# [6] = system: H1299; test: Anti-cancer assay, MTT, LD50; format: cell-based; conditions: 24 hours with peptide, lung large cell carcinoma
# Text: as §1
# [7] = system: HeLaS3; test: Anti-cancer assay, MTT, LD50; format: cell-based; conditions: 24 hours with peptide, cervical carcinoma
# Text: as §1
# [8] = system: Staphylococcus aureus ATCC 6538; test: Antimicrobial assay I, MIC by OD measurement; format: cell-based; conditions: 37° C. for 24 hours, absorbance 620 nm
# [9] = system: Pseudomonas aeruginosa ATCC 9027; test: Antimicrobial assay I, MIC by OD measurement; format: cell-based; conditions: 37° C. for 24 hours, absorbance 620 nm
# [10] = system: yeast (Saccharomyces cerevisiae); test: Antimicrobial assay I, yeast assay in RPMI 1640; format: cell-based; conditions: RPMI 1640 media
# Description: The data for the following antimicrobial assay of the peptides have been obtained by making OD measurements in in vitro cell culture experiments with and without added peptide. The protocol used is as follows.
# Absorbance was read at 620 nm after shaking to resuspend cells.
# The yeast assay was performed in RPMI 1640 media (pH 7.0 at 25° C.).
# Staph6538 is Staphylococcus aureus ATCC accession number 6538; paerug9027 is Pseudomonas aeruginosa ATCC accession number 9027, yeast is Saccharomyces cerevisiae.
# [11] = system: human red blood cells (RBC); test: in vitro; format: cell-based; conditions: hemolytic assay, concentration at 50% hemolysis, 1 hour at 37° C.
# [12] = in vitro; conditions: human, WI38 normal lung fibroblast cells, 24 hours with peptide
# [13] = LD50 WI38, WI38 normal lung fibroblast line, MTT
Substance,WI38 LD50 [1],LD50 WI38 [1],LD50 BMKC [2],PC3 LD50 [3],LD50 SW480 [4],LD50 MCF7 [5],H1299 LD50 [6],HeLaS3 LD50 [7],staph6538 (MIC) [8],paerug9027 (MIC) [9],yeast (MIC or MFC) [10],LD50 [11],"CC50 at 24 h [12, 13] [µg/mL]","CC50 at 24 h ([12]; WI38 LD50, MTT, normal fibroblast line) [µg/mL]"
"FALAKKALKKAKKAL-NH2 [P40, FALAKKALKKAKKAL-NH2]",> (> indicates greater than 1000),> (> indicates greater than 1000),> (> indicates greater than 1000),435 µg/mL,> (> indicates greater than 1000),760 µg/mL,> (> indicates greater than 1000),> (> indicates greater than 1000),100 µg/mL,25 µg/mL,100 µg/mL,> (> indicates greater than 1000),,
"MPKWKVFKKIEKVGRNIRNGIVKAGPAIAVLGEAKALG-OH [P5, reference compound]",,,,,,,,,100 µg/mL,50 µg/mL,> (> indicates greater than 200 μg/mL),> (> indicates greater than 1000),,
FAFGKGIGKVGKKLL-NH2 [P133],> (> indicates greater than 1000),> (> indicates greater than 1000),> (> indicates greater than 1000),> (> indicates greater than 1000),> (> indicates greater than 1000),> (> indicates greater than 1000),> (> indicates greater than 1000),> (> indicates greater than 1000),> (> indicates greater than 200 μg/mL),> (> indicates greater than 200 μg/mL),> (> indicates greater than 200 μg/mL),> (> indicates greater than 1000),,
FKLAFKLAKKAFL-NH2 [P122],720 µg/mL,,700 µg/mL,800 µg/mL,570 µg/mL,360 µg/mL,830 µg/mL,780 µg/mL,,,,> (> indicates greater than 1000),720,
FAKLWAKLAKKL-NH2 [P136],> (> indicates greater than 1000),> (> indicates greater than 1000),530 µg/mL,900 µg/mL,600 µg/mL,500 µg/mL,450 µg/mL,400 µg/mL,100 µg/mL,50 µg/mL,100 µg/mL,> (> indicates greater than 1000),,
FAKIIAKIAKKI-NH2 [P143],> (> indicates greater than 1000),> (> indicates greater than 1000),> (> indicates greater than 1000),> (> indicates greater than 1000),> (> indicates greater than 1000),> (> indicates greater than 1000),> (> indicates greater than 1000),> (> indicates greater than 1000),100 µg/mL,50 µg/mL,200 µg/mL,> (> indicates greater than 1000),,
FAKAIAKIAFGKGIGKVGKKLL-NH2 [P134],> (> indicates greater than 1000),> (> indicates greater than 1000),> (> indicates greater than 1000),> (> indicates greater than 1000),740 µg/mL,> (> indicates greater than 1000),> (> indicates greater than 1000),> (> indicates greater than 1000),100 µg/mL,> (> indicates greater than 200 μg/mL),200 µg/mL,> (> indicates greater than 1000),,
FAKLLAKLAKKEL-NH2 [P126],> (> indicates greater than 1000),> (> indicates greater than 1000),> (> indicates greater than 1000),> (> indicates greater than 1000),> (> indicates greater than 1000),> (> indicates greater than 1000),> (> indicates greater than 1000),> (> indicates greater than 1000),> (> indicates greater than 200 μg/mL),> (> indicates greater than 200 μg/mL),> (> indicates greater than 200 μg/mL),> (> indicates greater than 1000),,
"FAKLF-NH2 [P129, FAKLF-NH2]",> (> indicates greater than 1000),> (> indicates greater than 1000),> (> indicates greater than 1000),> (> indicates greater than 1000),550 µg/mL,> (> indicates greater than 1000),790 µg/mL,550 µg/mL,100 µg/mL,25 µg/mL,100 µg/mL,> (> indicates greater than 1000),,
"KKVVFKVKFK-NH2 [P302, reference compound]",800 µg/mL,,700 µg/mL,> (> indicates greater than 1000),> (> indicates greater than 1000),340 µg/mL,720 µg/mL,> (> indicates greater than 1000),,,,> (> indicates greater than 1000),800,
FALALKALKKA-NH2 [P176],,,,,,,,,> (> indicates greater than 200 μg/mL),> (> indicates greater than 200 μg/mL),> (> indicates greater than 200 μg/mL),> (> indicates greater than 1000),,
KFKKLAKKW-NH2 [P175],> (> indicates greater than 1000),> (> indicates greater than 1000),> (> indicates greater than 1000),> (> indicates greater than 1000),70 µg/mL,> (> indicates greater than 1000),> (> indicates greater than 1000),510 µg/mL,,,,> (> indicates greater than 1000),,
KFKKLAKKF-NH2 [P174],> (> indicates greater than 1000),> (> indicates greater than 1000),> (> indicates greater than 1000),> (> indicates greater than 1000),> (> indicates greater than 1000),> (> indicates greater than 1000),> (> indicates greater than 1000),> (> indicates greater than 1000),,,,> (> indicates greater than 1000),,
"YAKLLAKLAKKAL-NH2 [P155, YAKLLAKLAKKAL-NH2]",> (> indicates greater than 1000),> (> indicates greater than 1000),> (> indicates greater than 1000),,> (> indicates greater than 1000),> (> indicates greater than 1000),> (> indicates greater than 1000),> (> indicates greater than 1000),> (> indicates greater than 200 μg/mL),> (> indicates greater than 200 μg/mL),> (> indicates greater than 200 μg/mL),> (> indicates greater than 1000),,
"KLAKKLAKLAKLAKAL-OH [P160, reference compound]",700 µg/mL,,220 µg/mL,450 µg/mL,370 µg/mL,320 µg/mL,470 µg/mL,550 µg/mL,,,,> (> indicates greater than 1000),700,
FAKKLAKKLKKLAKKLAK-OH [Shiva 10(1-18_AC],,,,,,,,,,,,> (> indicates greater than 1000),,
FAKLLAKLAKKAA-NH2 [P93],,,,690 µg/mL,,,320 µg/mL,> (> indicates greater than 1000),,,,> (> indicates greater than 1000),,530

# Reference: US20050209157A1, “Short bioactive peptides and methods for their use” (priority 2001, published 2005)
